The source of these data is patent publication US7462641B2, “(2S,4S)-4-fluoro-1-[4-fluoro-beta-(4-fluorophenyl)-L-phenylalanyl]-2-pyrrolidinecarbonitrile p-toluenesulfonic acid salt and anhydrous crystalline forms thereof” (SmithKline Beecham Corporation, priority 2003, dated 2008).

Molecules are shown by their SMILES. Structures can show the parent of a compound that is named as a salt.

The target in one data set is DPP IV (Homo sapiens, UniProt P27487). The conditions noted are these: as noted in WO 03/02531; cited from earlier work.
A short description of data set [1]: Moisture sorption testing (gas flow microbalance, VTI SGA-100). Format: physicochemical. As to conditions: for hygroscopicity: 25° C.
Description: The sample was equilibrated at 25° C. and 30% relative humidity and the relative humidity increased stepwise (adsorption) to 40, 50, 60, 70, 80, 90%—each relative humidity step was held until the sample equilibrated at that condition. Equilibrium was defined as a weight change of less than 0.015% in 5 minutes. The relative humidity was then decreased step wise (desorption) to 90, 80, 70, 60, 50, 40, 30, 20, 10, and 5%—each step held until equilibrium was reached. The equilibrium condition was the same as in the sorption phase. The % w/w increase or decrease in moisture content of the sample is reported for each equilibrated RH condition.
The sample was dried at 60C under a dry nitrogen stream until the rate of weight loss was less than 0.015% in 5 minutes. After drying the sample was equilibrated at 25C and the relative humidity increased stepwise (adsorption) to 5, 20, 45, 75, and 95%—each relative humidity step was held until the sample equilibrated at that condition or a 180 minute time limit was reached. Equilibrium was defined as a weight change of less than 0.015% in 5 minutes. The relative humidity was then decreased step wise (desorption) to 75, 45, and 20%—each step held until equilibrium was reached. The equilibrium condition was the same as in the sorption phase. The % w/w increase or decrease in moisture content of the sample is reported for each equilibrated RH condition.
The nature of data set [2]: Stability testing in 40 C/75% RH oven. Format: physicochemical. The conditions noted are these: after two (2) weeks in an 40 C/75% RH oven.

Chain of DPP IV (P27487 whole entry, species assumed): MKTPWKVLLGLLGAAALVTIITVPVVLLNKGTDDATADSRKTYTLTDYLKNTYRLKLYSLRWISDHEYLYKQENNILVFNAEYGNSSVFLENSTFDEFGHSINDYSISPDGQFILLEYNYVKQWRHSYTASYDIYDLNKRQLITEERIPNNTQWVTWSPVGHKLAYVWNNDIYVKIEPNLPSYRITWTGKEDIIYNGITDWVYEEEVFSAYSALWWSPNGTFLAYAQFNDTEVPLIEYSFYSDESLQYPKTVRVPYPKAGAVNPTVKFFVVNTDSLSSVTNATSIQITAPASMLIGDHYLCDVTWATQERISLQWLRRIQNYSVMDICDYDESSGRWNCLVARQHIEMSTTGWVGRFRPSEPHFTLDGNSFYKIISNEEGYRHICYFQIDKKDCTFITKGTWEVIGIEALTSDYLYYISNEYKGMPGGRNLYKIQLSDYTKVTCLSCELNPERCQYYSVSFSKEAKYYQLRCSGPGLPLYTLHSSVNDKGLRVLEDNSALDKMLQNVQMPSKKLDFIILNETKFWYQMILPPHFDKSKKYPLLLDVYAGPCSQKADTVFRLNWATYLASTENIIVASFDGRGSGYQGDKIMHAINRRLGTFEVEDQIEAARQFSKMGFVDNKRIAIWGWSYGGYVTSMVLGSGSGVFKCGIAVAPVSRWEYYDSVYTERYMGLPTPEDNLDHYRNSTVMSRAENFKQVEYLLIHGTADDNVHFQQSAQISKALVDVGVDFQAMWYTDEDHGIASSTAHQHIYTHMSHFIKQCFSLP

As to `N#C[C@@H]1C[C@H](F)CN1C(=O)[C@@H](N)C(c1ccc(F)cc1)c1ccc(F)cc1` [HCl salt, (2S,4S)-1-[(2S)-2-Amino-3,3-bis(4-fluorophenyl)propanoyl]-4-fluoropyrrolidine-2-carbonitrile hydrochloride, reference compound], the “inhibition activity of DPP IV” value at DPP IV is “demonstrates inhibition activity of DPP IV”. In addition, the hygroscopicity entry in data set [1] (hydrochloride) is recorded as “hygroscopic”. This molecule also displayed a water adsorbed in data set [1] (95% relative humidity at 25° C.) of over 10%.

Turning to `N#C[C@@H]1C[C@H](F)CN1C(=O)[C@@H](N)C(c1ccc(F)cc1)c1ccc(F)cc1` [anhydrate form 1, (2S,4S)-4-fluoro-1-[4-fluoro-β-(4-fluorophenyl)-L-phenylalanyl]-2-pyrrolidinecarbonitrile p-toluenesulfonic acid salt], the hygroscopicity result in data set [1] is reported as “not hygroscopic”. The water adsorbed entry in data set [1] (relative humidity between 0% and 95% at 25C) is on record as “less than 1 % w/w”; in data set [1] (relative humidity between 5% to 90% at 25° C.) it was “very little water”. The “desorption of adsorbed water” value in data set [1] (when the relative humidity is decreased) is “readily desorbs”. Besides, in data set [2], the “stability (purity data)” value is given as “beneficial properties with regard to stability”.
